pEC50, pKi: −log10 of the molar value. Entries after “also recorded” stand apart in the source; their conditions may differ.
How the values were obtained:
[1] = system: 24-hydroxylase (24Ohase) gene promoter in ROS 17/2.8 (bone) cells; experiment: In vitro transcription assay (luciferase reporter); assay type: cell-based; conditions: FIG. 3; for pEC50: 24-hydroxylase promoter luciferase reporter, read-out: EC50, transcriptional activity in bone cells; for Transcriptional activity, result in words: 24-hydroxylase (CYP-24) promoter luciferase reporter
Experimental: Transcription activity was measured in ROS 17/2.8 (bone) cells that were stably transfected with a 24-hydroxylase (24Ohase) gene promoter upstream of a luciferase reporter gene (Arbour et al., 1998). Cells were given a range of doses. Sixteen hours after dosing the cells were harvested and luciferase activities were measured using a luminometer. RLU=relative luciferase units

D-deficient CD-1 mice = experiment: Bone calcium mobilization, 1st in vivo study (D-deficient mice); conditions: for Bone calcium mobilization activity (serum calcium change), overall: single intraperitoneal injection, D-deficient CD-1 mice, FIG. 4
Experimental: Female, CD-1 mice (6 weeks old) were purchased from Harlan Sprague-Dawley. Upon arrival, the animals were placed in a room with filtered lighting and fed a purified, D-deficient diet (Suda et al 1970 J. Nutrition) for 17 weeks. […] Serum calcium was measured by diluting with 0.1% lanthum chloride and reading the absorbance using an atomic absorption spectrometer. The change in serum calcium from pre-dose values (baseline) is reported.
(§1) In vivo data were analyzed by one-way ANOVA followed by pairwise comparisons when significant overall differences were detected. Post-hoc analyses includes, Tukey's, Scheffe's, and Fisher's LSD tests. Only differences (p<0.05) that were present in two out of the three post-hoc tests were considered significant.
Calcium mobilization from bone in vitamin D-deficient animals.

[2] = system: Human promyelocytic leukemia (HL60) cells; experiment: HL-60 differentiation (nitro blue tetrazolium reduction); assay type: cell-based; conditions: FIG. 2; for pEC50: Homo sapiens, HL-60
Experimental: The study drugs were dissolved in ethanol and the concentrations determined using UV spectrophotometry. Serial dilutions were prepared so that a range of drug concentrations could be tested without changing the final concentration of ethanol (≦0.2%) present in the cell cultures.
Human promyelocytic leukemia (HL60) cells were grown in RPMI-1640 medium containing 10% fetal bovine serum. The cells were incubated at 37° C. in the presence of 5% CO2.
HL60 cells were plated at 1.2×10^5 cells/ml. Eighteen hours after plating, cells in duplicate were treated with drug. Four days later, the cells were harvested and a nitro blue tetrazolium reduction assay was performed (Collins et al., 1979; J. Exp. Med. 149:969-974). The percentage of differentiated cells was determined by counting a total of 200 cells and recording the number that contained intracellular black-blue formazan deposits. Verification of differentiation to monocytic cells was determined by measuring phagocytic activity (data not shown).

D-sufficient CD-1 mice [3] = experiment: Bone calcium mobilization, 2nd in vivo study (D-sufficient mice); conditions: single intraperitoneal injection, two doses, 72 hours; FIG. 5
Experimental: (§2) 6-7 week old female CD-1 mice were purchased from Harlan (Indianapolis, Ind.). The animals were group housed and fed a purified diet containing 0.47% calcium. (Suda et al 1970 J. Nutrition). After a 5-7 day acclimation period, the animals were assigned to treatment groups (n=5-6/group) and given a single dose of the designated analogues by intraperitoneal injection. Blood was collected for serum calcium concentration analyses immediately prior to dose administration and 72 hours following dose delivery. Serum calcium were analyzed as described above.
as §1

[4] = biological target: T1, full-length recombinant rat vitamin D receptor (Rattus norvegicus, UniProt P13053); experiment: Vitamin D receptor competitive binding with [3H]-1,25(OH)2D3; conditions: FIG. 1; for pKi: full-length recombinant rat VDR, read-out: Ki, competition with [3H]-1,25(OH)2D3 for binding to the vitamin D receptor
T1 construct: Full-length recombinant rat receptor was expressed in E. coli BL21 (DE3) Codon Plus RIL cells; histidine tag (C); made in house; host or cells: E. coli BL21 (DE3) Codon Plus RIL
T1 sequence (P13053 1-423): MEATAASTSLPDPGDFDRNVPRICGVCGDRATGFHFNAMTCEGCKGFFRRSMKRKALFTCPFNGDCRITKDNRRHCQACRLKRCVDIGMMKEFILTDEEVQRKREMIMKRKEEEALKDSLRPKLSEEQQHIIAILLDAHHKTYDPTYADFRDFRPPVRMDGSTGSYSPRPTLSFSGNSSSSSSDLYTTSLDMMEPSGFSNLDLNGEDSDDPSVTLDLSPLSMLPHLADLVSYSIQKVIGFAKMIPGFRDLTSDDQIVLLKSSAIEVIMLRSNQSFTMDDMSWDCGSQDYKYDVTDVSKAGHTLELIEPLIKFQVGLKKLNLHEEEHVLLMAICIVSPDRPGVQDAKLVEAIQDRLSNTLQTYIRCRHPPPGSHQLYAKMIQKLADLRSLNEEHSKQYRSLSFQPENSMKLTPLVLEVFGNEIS
Experimental: Full-length recombinant rat receptor was expressed in E. coli BL21 (DE3) Codon Plus RIL cells and purified to homogeneity using two different column chromatography systems. The first system was a nickel affinity resin that utilizes the C-terminal histidine tag on this protein. The protein that was eluted from this resin was further purified using ion exchange chromatography (S-Sepharose
Fast Flow). Aliquots of the purified protein were quick frozen in liquid nitrogen and stored at −80° C. until use. For use in binding assays, the protein was diluted in TEDK50 (50 mM Tris, 1.5 mM EDTA, pH7.4, 5 mM DTT, 150 mM KCI) with 0.1% Chaps detergent. The receptor protein and ligand concentration was optimized such that no more than 20% of the added radiolabeled ligand was bound to the receptor.
Radiolabeled and unlabeled ligands were added to 100 mcl of the diluted protein at a final ethanol concentration of ≦10%, mixed and incubated overnight on ice to reach binding equilibrium. The following day, 100 mcl of hydroxylapatite slurry (50%) was added to each tube and mixed at 10-minute intervals for 30 minutes. The hydroxylapaptite was collected by centrifugation and then washed three times with Tris-EDTA buffer (50 mM Tris, 1.5 mM EDTA, pH 7.4) containing 0.5% Titron X-100. After the final wash, the pellets were transferred to scintillation vials containing 4 ml of Biosafe II scintillation cocktail, mixed and placed in a scintillation counter. Total binding was determined from the tubes containing only radiolabeled ligand.

D-sufficient CD-1 mice [5] = experiment: Bone calcium mobilization, 3rd in vivo study (routes of administration); conditions: FIG. 6
Description: as §2, with “groups (n=5/group)” for “groups (n=5-6/group)”, “intraperitoneal injection or oral gavage.” for “intraperitoneal injection.”, “analyses at various timepoints” for “analyses immediately prior to dose administration and 72 hours”, “calcium was” for “calcium were”
as §1

C=C1/C(=C\C=C2/CCC[C@]3(C)[C@@H]([C@H](C)CCCC(C)(C)O)CC[C@@H]23)C[C@@H](O)C[C@@H]1O [1,25(OH)2D3, 1α,25-dihydroxyvitamin D3, reference compound]
pEC50 [1]: 9.70
Bone calcium mobilization activity (serum calcium change), overall (D-deficient CD-1 mice): increased serum calcium levels
pEC50 [2]: 8.70

C[C@H](CCCC(C)(C)O)[C@H]1CC[C@H]2/C(=C/C=C3/C[C@@H](O)C4=CCCO[C@@H]4C3)CCC[C@]12C [REV-A]
Transcriptional activity, result in words [1]: weak transcriptional activity; also recorded: much less transcriptional activity than 1α,25-dihydroxyvitamin D3
pEC50 [1]: 7.52
Serum calcium change in D-sufficient mice (D-sufficient CD-1 mice [3]): no significant increase in serum calcium
pKi [4]: 7.52
VDR binding activity relative to 1,25-(OH)2D3 ([4]; less active than 1,25-(OH)2D3): 3 orders of magnitude
HL-60 cell differentiation, result in words [2]: considerably less active than 1,25(OH)2D3
pEC50 [2]: 7.00

C[C@H](CCCC(C)(C)O)[C@H]1CC[C@H]2/C(=C/C=C3\C[C@@H](O)C4=CCCO[C@@H]4C3)CCC[C@]12C [REV-B]
Transcriptional activity, result in words [1]: essentially no transcriptional activity; also recorded: lacks activity; also recorded: inactive
Serum calcium change in D-sufficient mice (D-sufficient CD-1 mice [3]): remarkable in vivo activity of REV-B to raise blood calcium levels
Calcemic response 48 hours after the dose (D-deficient CD-1 mice; D-deficient mice, analog doses exceeding thirty times that of the natural hormone, 48 hours): markedly more active
Bone calcium mobilization activity (serum calcium change), overall (D-deficient CD-1 mice): considerable bone calcium mobilization activity
VDR binding, result in words [4]: does not bind to the VDR; also recorded: little binding activity for VDR
pKi [4]: < 5.00
Onset of serum calcium increase compared to 1,25(OH)2D3 (D-sufficient CD-1 mice [5]): significant delay
Serum calcium increase by route of administration (D-sufficient CD-1 mice [5]; oral gavage vs. intraperitoneal injection): Both routes of administration are effective at causing an increase in serum calcium; however, intraperitoneal injection is more effective than oral gavage
HL-60 cell differentiation, result in words [2]: lacks activity in cellular differentiation; also recorded: considerably less active than 1,25(OH)2D3
pEC50 [2]: 6.00

From patent US7538098B2, “19-nor-vitamin D analogs with 1,2 or 3,2 heterocyclic ring” (Wisconsin Alumni Research Foundation, priority 2006, dated 2009)
